Assay results taken from ChEMBL document CHEMBL3860045 (Bioorg Med Chem Lett, 2016).
One block for each compound: values may come before it.

Experiments:
[1] = biological target: T1, High affinity choline transporter 1 (Homo sapiens, UniProt Q9GZV3); assay: Inhibition of [3H]choline uptake at human choline transporter expressed in HEK293 cells preincubated for 15 mins followed by [3H]choline addition measured after 10 to 15 mins by scintillation proximity assay; assay type: cell-based
T1 sequence (Q9GZV3 whole entry): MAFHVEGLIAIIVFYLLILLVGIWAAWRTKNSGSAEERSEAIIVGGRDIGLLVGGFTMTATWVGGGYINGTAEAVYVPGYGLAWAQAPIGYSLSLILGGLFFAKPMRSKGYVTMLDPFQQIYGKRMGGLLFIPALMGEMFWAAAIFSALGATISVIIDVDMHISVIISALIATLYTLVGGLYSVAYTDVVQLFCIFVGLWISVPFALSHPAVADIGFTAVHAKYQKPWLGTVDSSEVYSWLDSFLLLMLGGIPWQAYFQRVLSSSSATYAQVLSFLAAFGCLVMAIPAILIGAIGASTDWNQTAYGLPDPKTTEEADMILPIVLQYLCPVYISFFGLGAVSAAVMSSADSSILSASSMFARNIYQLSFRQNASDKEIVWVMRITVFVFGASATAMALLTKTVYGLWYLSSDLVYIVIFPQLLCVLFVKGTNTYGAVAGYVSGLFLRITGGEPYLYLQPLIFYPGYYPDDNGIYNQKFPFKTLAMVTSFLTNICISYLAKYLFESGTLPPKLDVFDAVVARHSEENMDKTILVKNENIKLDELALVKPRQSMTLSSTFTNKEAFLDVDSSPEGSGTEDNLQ

[2] = biological target: T2, High affinity choline transporter 1 (Homo sapiens) (UniProt Q9GZV3); assay: Inhibition of [3H]choline uptake at human choline transporter expressed in HEK293 cells at 5 uM preincubated for 15 mins followed by [3H]choline addition measured after 10 to 15 mins by scintillation proximity assay relative to control; assay type: cell-based
T2 sequence (whole entry): T1 sequence (Q9GZV3 whole entry)

[3] = system: Rattus norvegicus; assay: Cognitive enhancing effect in ip dosed rat assessed as increase in recognition index treated 30 mins prior test measured after 24 hrs by novel object recognition test relative to vehicle-treated control; assay type: functional, organism-based
[4] = system: Rattus norvegicus; assay: Toxicity in rat at >10 mg/kg, ip; assay type: organism-based; conditions: in vivo
[5] = Fraction unbound in human plasma after 4 hrs by LC-MS/MS based equilibrium dialysis method; assay type: ADME, cell-free
[6] = Volume of distribution at steady state in cannulated Sprague-Dawley rat at 1 mg/kg, iv up to 24 hrs by LC-MS/MS analysis; assay type: ADME, organism-based; conditions: in vivo
[7] = Fraction unbound in rat brain after 4 hrs by LC-MS/MS based equilibrium dialysis method; assay type: ADME, tissue-based
[8] = biological target: T3, Cytochrome P450 1A2 (Homo sapiens, UniProt P05177); assay: Inhibition of human CYP1A2; assay type: ADME
T3 sequence (P05177 whole entry): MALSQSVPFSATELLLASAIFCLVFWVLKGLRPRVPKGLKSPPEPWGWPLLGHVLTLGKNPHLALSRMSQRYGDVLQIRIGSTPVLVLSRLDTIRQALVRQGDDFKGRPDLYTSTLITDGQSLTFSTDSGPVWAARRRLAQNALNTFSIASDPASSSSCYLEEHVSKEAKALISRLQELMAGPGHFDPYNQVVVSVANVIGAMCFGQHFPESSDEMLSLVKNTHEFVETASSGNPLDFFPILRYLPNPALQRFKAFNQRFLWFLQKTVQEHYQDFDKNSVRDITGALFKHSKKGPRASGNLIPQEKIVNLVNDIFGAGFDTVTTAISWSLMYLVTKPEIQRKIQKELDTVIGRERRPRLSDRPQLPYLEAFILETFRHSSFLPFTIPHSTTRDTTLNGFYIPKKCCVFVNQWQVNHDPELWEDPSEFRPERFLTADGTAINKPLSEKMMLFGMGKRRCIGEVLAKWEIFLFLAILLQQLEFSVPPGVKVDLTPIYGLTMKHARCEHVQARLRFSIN

[9] = biological target: Cytochrome P450 3A4 (Homo sapiens, UniProt P08684); assay: Inhibition of human CYP3A4; assay type: ADME
[10] = Plasma clearance in cannulated Sprague-Dawley rat at 1 mg/kg, iv up to 24 hrs by LC-MS/MS analysis; assay type: ADME, organism-based
[11] = Half life in cannulated Sprague-Dawley rat plasma at 1 mg/kg, iv by LC-MS/MS analysis; assay type: ADME, organism-based
[12] = system: Rattus norvegicus; assay: Cognitive enhancing effect in rat assessed as increase in recognition index at 10 mg/kg, ip treated 30 mins prior test measured after 24 hrs by novel object recognition test relative to vehicle-treated control; assay type: functional
[13] = Fraction unbound in rat plasma after 4 hrs by LC-MS/MS based equilibrium dialysis method; assay type: ADME, cell-free
[14] = biological target: Cytochrome P450 2C9 (Homo sapiens, UniProt P11712); assay: Inhibition of human CYP2C9; assay type: ADME
[15] = system: Rattus norvegicus; assay: Cognitive enhancing effect in rat assessed as increase in recognition index at 3 mg/kg, ip treated 30 mins prior test measured after 24 hrs by novel object recognition test relative to vehicle-treated control; assay type: functional
[16] = Intrinsic clearance in human liver microsomes at 1 uM preincubated with microsomes followed by NADPH addition measured up to 45 mins by LC-MS/MS analysis; assay type: ADME; conditions: read-out: CLH
[17] = Intrinsic clearance in rat liver microsomes at 1 uM preincubated with microsomes followed by NADPH addition measured up to 45 mins by LC-MS/MS analysis; assay type: ADME; conditions: read-out: CLH
[18] = Ratio of drug level in cannulated Sprague-Dawley rat brain to plasma at 1 mg/kg, iv; assay type: ADME, organism-based
[19] = Drug uptake in cannulated Sprague-Dawley rat brain at 1 mg/kg, iv administered twice at 24 hrs interval followed by 0.75 min of isoflurane treatment post 15 min second dose measured after […] by LC-MS/MS analysis; assay type: ADME, organism-based; conditions: read-out: Drug uptake
[20] = Plasma concentration in cannulated Sprague-Dawley rat at 1 mg/kg, iv after […] by LC-MS/MS analysis; assay type: ADME, organism-based
[21] = Ratio of unbound concentration in cannulated Sprague-Dawley rat brain to plasma at 1 mg/kg, iv; assay type: ADME, organism-based; conditions: read-out: K(p,uu,brain)
[22] = biological target: Cytochrome P450 2D6 (Homo sapiens, UniProt P10635); assay: Inhibition of human CYP2D6; assay type: ADME
Cytochrome P450 2D6, sequence (P10635 whole entry): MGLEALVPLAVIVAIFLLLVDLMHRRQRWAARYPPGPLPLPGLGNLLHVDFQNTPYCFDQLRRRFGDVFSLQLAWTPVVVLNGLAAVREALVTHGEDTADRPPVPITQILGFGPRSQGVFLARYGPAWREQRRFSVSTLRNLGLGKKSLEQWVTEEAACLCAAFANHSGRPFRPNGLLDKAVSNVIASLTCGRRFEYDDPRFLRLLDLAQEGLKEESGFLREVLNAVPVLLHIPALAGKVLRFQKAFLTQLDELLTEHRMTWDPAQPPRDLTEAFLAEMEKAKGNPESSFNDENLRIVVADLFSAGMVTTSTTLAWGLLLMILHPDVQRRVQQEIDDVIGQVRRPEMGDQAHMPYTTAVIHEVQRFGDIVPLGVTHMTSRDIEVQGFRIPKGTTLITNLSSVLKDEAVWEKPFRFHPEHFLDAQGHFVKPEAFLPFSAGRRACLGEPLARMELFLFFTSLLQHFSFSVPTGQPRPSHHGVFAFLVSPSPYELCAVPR

Cytochrome P450 3A4, sequence (P08684 whole entry): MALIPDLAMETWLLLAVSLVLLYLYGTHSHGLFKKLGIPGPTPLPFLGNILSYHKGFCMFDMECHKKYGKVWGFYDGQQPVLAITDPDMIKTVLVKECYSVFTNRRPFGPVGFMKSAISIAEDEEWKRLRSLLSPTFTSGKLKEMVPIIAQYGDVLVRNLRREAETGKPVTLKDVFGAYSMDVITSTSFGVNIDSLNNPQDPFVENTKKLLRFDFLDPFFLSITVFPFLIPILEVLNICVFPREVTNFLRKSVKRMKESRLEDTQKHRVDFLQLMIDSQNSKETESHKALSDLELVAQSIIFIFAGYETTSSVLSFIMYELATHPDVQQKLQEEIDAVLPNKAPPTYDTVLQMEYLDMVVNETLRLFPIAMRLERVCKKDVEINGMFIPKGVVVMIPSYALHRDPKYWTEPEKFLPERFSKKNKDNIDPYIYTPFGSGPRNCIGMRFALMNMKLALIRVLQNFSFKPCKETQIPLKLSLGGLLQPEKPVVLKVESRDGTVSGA
Cytochrome P450 2C9, sequence (P11712 whole entry): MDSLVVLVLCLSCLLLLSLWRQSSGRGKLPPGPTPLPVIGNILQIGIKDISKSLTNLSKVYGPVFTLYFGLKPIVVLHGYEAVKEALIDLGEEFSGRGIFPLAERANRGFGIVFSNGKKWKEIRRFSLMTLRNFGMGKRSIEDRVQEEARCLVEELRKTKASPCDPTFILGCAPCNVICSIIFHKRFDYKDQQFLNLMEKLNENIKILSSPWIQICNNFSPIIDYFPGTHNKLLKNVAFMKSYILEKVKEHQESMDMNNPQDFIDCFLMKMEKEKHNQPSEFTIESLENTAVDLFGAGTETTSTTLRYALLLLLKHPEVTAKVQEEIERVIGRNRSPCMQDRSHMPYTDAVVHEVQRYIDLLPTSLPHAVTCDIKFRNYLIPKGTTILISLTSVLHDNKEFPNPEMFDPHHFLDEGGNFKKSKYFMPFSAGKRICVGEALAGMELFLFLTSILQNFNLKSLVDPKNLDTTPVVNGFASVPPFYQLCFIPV

SMILES: COc1cc2c(cc1OC)C(=O)C(CC1CCN(Cc3ccccc3)CC1)C2 (stereo not drawn)
Activity [3]: Dose-dependent effect

SMILES: CC(C)c1cc(CNC(=O)c2ccc(C(F)(F)F)c(OC3CCN(C)CC3)c2)on1
IC50 [1]: > 10000 nM
inhibition [2]: > 50%

SMILES: CC(C)c1cc(CNC(=O)c2ccc(C#N)c(OC3CCN(C)CC3)c2)on1
IC50 [1]: 3350 nM
inhibition [2]: > 50%

SMILES: COc1ccc(C(=O)NCc2cc(C(C)C)no2)cc1OC1CCN(C)CC1
Fu ([5]; 4 h): 0.67
Vdss ([6]; 24 h): 3.2 L/kg
fraction unbound at 4 h [7]: 0.36
t1/2 ([11]; in vivo): 0.55 h
Fu ([13]; 4 h): 0.35
CLint scaled at 1 µM [16]: 10.4 mL/min/kg
CLint scaled at 1 µM [17]: 95 mL/min/kg
Kp [18]: 0.18
concentration at […] [19]: 23.4 ng/g
concentration at […] [20]: 129 ng/mL

Continued, in another order:

IC50 [1]: 467 nM
inhibition [2]: > 50%
SMILES: CC(C)c1cc(CNC(=O)c2ccc(F)c(OC3CCN(C)CC3)c2)on1

IC50 [1]: 640 nM
inhibition [2]: > 50%
SMILES: CC(C)c1cc(CNC(=O)c2cccc(OC3CCN(C)CC3)c2)on1

IC50 [1]: 1840 nM
inhibition [2]: > 50%
SMILES: CC(C)c1cc(CNC(=O)c2cccc(OC3CCN(C(C)C)CC3)c2)on1

fraction unbound at 4 h [5]: 0.31
Vd ([6]; Sprague-Dawley, read-out: Vdss): 0.3 L/kg
fraction unbound at 4 h [7]: 0.65
IC50 [8]: > 30000 nM
IC50 [1]: 270 nM
inhibition [2]: > 50%
IC50 [9]: > 30000 nM
clearance [10]: 1.54 mL/min/kg
half-life ([11]; Sprague-Dawley, plasma): 1.95 h
fraction unbound at 4 h [13]: 0.19
IC50 [14]: > 30000 nM
CLint scaled at 1 µM [16]: 10.4 mL/min/kg
CLint scaled at 1 µM [17]: 42.5 mL/min/kg
Kp [18]: 0.34
concentration at […] [19]: 16.3 ng/g
concentration at […] [20]: 47.2 ng/mL
Kp uu [21]: 0.71
IC50 [22]: > 30000 nM
SMILES: CC(C)c1cc(CNC(=O)c2ccc(Cl)c(OC3CCN(C)CC3)c2)on1
Activity [4]: Toxic
Activity [12]: 24%
Activity [15]: 28%
Activity [3]: Dose-dependent effect
